Experimental findings from patent publication EP1144368B1, “ACETYLENIC ALPHA-AMINO ACID-BASED SULFONAMIDE HYDROXAMIC ACID TACE INHIBITORS” (priority 1999, dated 2000) are described below.

One experiment addresses TACE (Homo sapiens, UniProt P78536). The experiment in a line: TACE inhibition (fluorescent peptidyl substrate). It counts as biochemical. The conditions noted are these: for inhibition at 1 µM: In Vitro Inhibition of TACE, read-out: % Inhibition at 1 uM.
Another experiment deals with THP-1 cells. Nature of the experiment: THP-1 Soluble Protein Assay (LPS-stimulated; ELISA of TNF-a, TNF-R p75/80, TNF-R p55/60, IL-8). It counts as cell-based, human. As to conditions: Homo sapiens.
[1] abbreviates: THP-1, read-out: THP % inhibition @ 3 µM, 3 µM.
Where [2] appears, read: THP-1, 3 µM, read-out: THP % Inhibition @ 3µM.

Where a name gives a salt, the structure may show the parent alone. Read-outs that look alike come from different tables or passages of the source.

Chain of TACE (P78536 215-824): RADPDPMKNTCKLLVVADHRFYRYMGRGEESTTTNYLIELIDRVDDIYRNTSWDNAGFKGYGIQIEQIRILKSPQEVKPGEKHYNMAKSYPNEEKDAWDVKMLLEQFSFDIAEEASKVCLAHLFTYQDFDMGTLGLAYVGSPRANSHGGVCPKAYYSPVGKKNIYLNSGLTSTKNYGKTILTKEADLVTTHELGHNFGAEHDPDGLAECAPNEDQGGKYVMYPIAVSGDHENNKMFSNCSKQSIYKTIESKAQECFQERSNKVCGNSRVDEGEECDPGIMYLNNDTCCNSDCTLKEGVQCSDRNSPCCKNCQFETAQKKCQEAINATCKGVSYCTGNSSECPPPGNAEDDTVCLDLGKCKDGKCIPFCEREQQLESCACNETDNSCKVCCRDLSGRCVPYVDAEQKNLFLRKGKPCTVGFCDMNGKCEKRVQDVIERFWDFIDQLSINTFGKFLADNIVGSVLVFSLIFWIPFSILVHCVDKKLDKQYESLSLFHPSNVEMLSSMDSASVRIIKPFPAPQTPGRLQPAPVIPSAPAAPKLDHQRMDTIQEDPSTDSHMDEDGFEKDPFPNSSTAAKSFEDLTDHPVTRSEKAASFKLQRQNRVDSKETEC
Protocol for TACE: Using 96-well black microtiter plates, each well receives a solution composed of 10 µL TACE (final concentration 1µg/mL), 70µL Tris buffer, pH 7.4 containing 10% glycerol (final concentration 10 mM), and 10 µL of test compound solution in DMSO (final concentration 1µM, DMSO concentration <1%) and incubated for 10 minutes at room temperature.
The reaction is read (excitation 340 nm, emission 420 nm) for 10 min. and the increase in fluorescence over time is plotted as a linear line. The slope of the line is calculated and represents the reaction rate.
The linearity of the reaction rate is confirmed (r^2 >0.85). The mean (x±sem) of the control rate is calculated and compared for statistical significance (p<0.05) with drug-treated rates using Dunnett's multiple comparison test.

For orientation: IC50 means the concentration needed to halve the response being measured. Low values mean inhibition by little substance, high ones a need for much substance. With `CC#CCOc1ccc(S(=O)(=O)N[C@H](Cc2ccc(F)c(F)c2)C(=O)NO)cc1` [Example 315], the IC50 on TACE (Table 15: In Vitro Inhibition of TACE) was 5.7 nM.
The inhibition is the relative decrease from the control value, in per cent. For `CC#CCOc1ccc(S(=O)(=O)N[C@@H](COCc2ccccc2)C(=O)NO)cc1` [Example 97], the inhibition at 1 µM at TACE came to 67.5%.
Same read-out and setting: then `CC#CCOc1ccc(S(=O)(=O)N[C@H](CSCc2ccc(OC)cc2)C(=O)NO)cc1` [Example 302], with 3%; and `CC#CCOc1ccc(S(=O)(=O)N[C@@H](CC(=O)OC2CCCCC2)C(=O)NO)cc1` [Example 68], with 70.4%.
Still for that read-out and setting: then `CC#CCOc1ccc(S(=O)(=O)N[C@H](CC(=O)O)C(=O)NO)cc1` [Example 298], with 40%.
`CC#CCOc1ccc(S(=O)(=O)NC(C(=O)NO)c2ccc(OCCOCCOCCOC)cc2)cc1` (centres unmarked) [Example 209, 2-({[4-(2-Butynyloxy)phenyl]sulfonyl}amino)-N-hydroxy-2-(4-{2-[2-(2-methoxyethoxy)ethoxy]ethoxy}phenyl)acetamide]: in the experiment with THP-1 cells (setting [1]), the inhibition at 3 µM is 75%.
The same measure, in the same setting: then `CC#CCOc1ccc(S(=O)(=O)N(C)C(C(=O)NO)C(C)(C)SCc2ccccc2)cc1` (centres unmarked) [Example 153, 2-[(4-But-2-ynyloxy-benenesulfonyl)-methyl-amino]-N-hydroxy-3-methyl-3-benzylsulfanyl-butyramide], with 46%; and `CC(C)(C)OC(=O)NCC#CCOc1ccc(S(=O)(=O)N2CCSC(C)(C)C2C(=O)NO)cc1` (centres unmarked) [Example 266, tert-Butyl 4-[4-({3-[(hydroxyamino)carbonyl]-2,2-dimethyl-4-thiomorpholinyl}sulfonyl)phenoxy]-2-butynylcarbamate], with 79%.
As for `CC#CCOc1ccc(S(=O)(=O)N2C[C@H](CC(=O)NO)SC(C)(C)[C@@H]2C(=O)NO)cc1` [Example 279, (3S,6S)-4-{[4-(2-Butynyloxy)phenyl]sulfonyl}-N-hydroxy-6-[2-(hydroxyamino)-2-oxoethyl]-2,2-dimethyl-3-thiomorpholinecarboxamide], the inhibition at 3 µM with THP-1 cells (setting [2]) was 87%.
Consider `CC#CCOc1ccc(S(=O)(=O)N2CCN(C(=O)OC(C)(C)C)CC2C(=O)NO)cc1` (centres unmarked) [Example 58, 4-(4-But-2-ynyloxy-benzenesulfonyl)-3-hydroxycarbamoyl-piperazine-1-carboxylic acid tert-butyl ester], for which the inhibition at 3 µM in the experiment with THP-1 cells (setting [1]) is 79%.
`CC#CCOc1ccc(S(=O)(=O)N(C)C(C(=O)NO)c2ccc(OCCN3CCN(C(=O)OC(C)(C)C)CC3)cc2)cc1` (centres unmarked) [Example 185, tert-butyl 4-(2-{4-[1-[{[4-(2-butynyloxy)phenyl]sulfonyl}(methyl)amino]-2-(hydroxyamino)-2-oxoethyl]phenoxy}ethyl)-1-piperazinecarboxylate]: the inhibition at 3 µM in the experiment with THP-1 cells (setting [1]) came out at 89%.
Regarding `CC#CCOc1ccc(S(=O)(=O)N(C)C(C(=O)NO)c2ccc(OCCN(C)C)cc2)cc1` (centres unmarked) [Example 182, 2-[{[4-(2-Butynyloxy)phenyl]sulfonyl}(methyl)amino]-2-{4-[2-(dimethylamino)ethoxy]phenyl}-N-hydroxyacetamide], in the experiment with THP-1 cells (setting [1]), the inhibition at 3 µM was found to be 92%.
`CC#CCOc1ccc(S(=O)(=O)N2C[C@H](CC(=O)N3CCOCC3)SC(C)(C)[C@@H]2C(=O)NO)cc1` [Example 282, (3S,6S)-4-{[4-(2-Butynyloxy)phenyl]sulfonyl}-N-hydroxy-2,2-dimethyl-6-[2-(4-morpholinyl)-2-oxoethyl]-3-thiomorpholinecarboxamide]: in the experiment with THP-1 cells (setting [2]), the inhibition at 3 µM came out at 91%.
For `CCC#CCOc1ccc(S(=O)(=O)N2CCSC(C)(C)[C@@H]2C(=O)NO)cc1` [Example 259, (3S)-N-Hydroxy-2,2-dimethyl-4-{[4-(2-pentynyloxy)phenyl]sulfonyl}-3-thiomorpholine carboxamide], in the experiment on THP-1 cells (setting [1]), the inhibition at 3 µM came to 92%.
On the same count and under the same terms, then `CC1(C)SCCN(S(=O)(=O)c2ccc(OCC#CC#CCO)cc2)[C@H]1C(=O)NO` [Example 262, (3S)-N-Hydroxy-4-({4-[(6-hydroxy-2,4-hexadiynyl)oxy]phenyl}sulfonyl)-2,2-dimethyl-3-thiomorpholine carboxamide], with 81%; and `CC#CCOc1ccc(S(=O)(=O)N(C)C(C(=O)NO)c2ccc(OCCN)cc2)cc1` (centres unmarked) [Example 181, 2-[4-(2-Aminoethoxy)phenyl]-2-[{[4-(2-butynyloxy)phenyl]sulfonyl}(methyl)amino]-N-hydroxyacetamide], with 92%; and `CC#CCOc1ccc(S(=O)(=O)N2CCN(C)CC2C(=O)NO)cc1` (centres unmarked) [Example 56, 1-(4-But-2-ynyloxy-benzenesulfonyl)-4-methyl-piperazine-2-carboxylic acid hydroxyamide hydrochloride], with 32%.
As to `CC#CCOc1ccc(S(=O)(=O)N(C)C(C(=O)NO)c2ccc(OCCCNC(=O)OCC)cc2)cc1` (centres unmarked) [Example 193, Ethyl 3-{4-[1-[{[4-(2-butynyloxy)phenyl]sulfonyl}(methyl)amino]-2-(hydroxyamino)-2-oxoethyl]phenoxy}propylcarbamate], the inhibition at 3 µM in the experiment on THP-1 cells (setting [1]) was 91%.
On the same count and under the same terms, then `CC(C)(C)OC(=O)NCCC#CCOc1ccc(S(=O)(=O)N2CCSC(C)(C)C2C(=O)NO)cc1` (centres unmarked) [Example 245, tert-Butyl 5-[4-({3-[(hydroxyamino)carbonyl]-2,2-dimethyl-4-thiomorpholinyl}sulfonyl)phenoxy]-3-pentynylcarbamate], with 37%; and `CC#CCOc1ccc(S(=O)(=O)N(C)C(C(=O)NO)C(C)C)cc1` (centres unmarked) [Example 9, 2-[(4-But-2-ynyloxy-benzenesulfonyl)-methyl-amino]-N-hydroxy-3-methyl-butyramide], with 94%.
On to `CC#CCOc1ccc(S(=O)(=O)N2C[C@H](CC(=O)O)SC(C)(C)[C@@H]2C(=O)NO)cc1` [Example 278, {(2S,5S)-4-{[4-(2-Butynyloxy)phenyl]sulfonyl}-5-[(hydroxyamino)carbonyl]-6,6-dimethylthiomorpholinyl}acetic acid], for which the inhibition at 3 µM with THP-1 cells (setting [2]) is 89%.
As for `CC#CCOc1ccc(S(=O)(=O)N(C)C(C(=O)NO)C(C)(C)SCCN(CC)CC)cc1` (centres unmarked) [Example 142, 2-({[4-(2-Butynyloxy)phenyl]sulfonyl)(methyl)amino]-N-hydroxy-3 methyl-3-{[2-(diethylamino)ethyl]sulfanyl}butanamide], the inhibition at 3 µM in the experiment on THP-1 cells (setting [1]) was found to be 89%.
For `CC#CCOc1ccc(S(=O)(=O)N[C@@H](C(=O)NO)c2ccc(OCCN)cc2)cc1` [Example 200, (2R)-2-[4-(2-Aminoethoxy)phenyl]-2-({[4-(2-butynyloxy)phenyl]sulfonyl}amino)-N-hydroxyethanamide], in the experiment with THP-1 cells (setting [1]), the inhibition at 3 µM was found to be 78%.
On the same count and under the same terms, then `CC#CCOc1ccc(S(=O)(=O)N(CCCN(CC)CC)C(C(=O)NO)C(C)C)cc1` (centres unmarked) [Example 118, 2-{{[4-(2-Butynyloxy)phenyl]sulfonyl}[3-(diethylamino)propyl]amino}-N-hydroxy-3-methylbutanamide], with 77%; and `CC#CCOc1ccc(S(=O)(=O)N2CCN(C(=O)N3CCOCC3)CC2C(=O)NO)cc1` (centres unmarked) [Example 215, 1-(4-But-2-ynyloxy-benzenesulfonyl)-4-(morpholine-4-carbonyl)-piperazine-2-carboxylic acid hydroxyamide], with 51%; and `CN(CC#CCOc1ccc(S(=O)(=O)N2CCSC(C)(C)C2C(=O)NO)cc1)C(=O)OC(C)(C)C` (centres unmarked) [Example 267, tert-butyl 4-[4-({3-[(hydroxyamino)carbonyl]-2,2-dimethyl-4-thiomorpholinyl}sulfonyl)phenoxy]-2-butynyl(methyl)carbamate], with 15%.
In the case of `CC#CCOc1ccc(S(=O)(=O)N2CCCSC(C)(C)[C@@H]2C(=O)NO)cc1` [Example 173], the inhibition at 3 µM with THP-1 cells (setting [2]) turned out to be 80%.
`CC1(C)SCCN(S(=O)(=O)c2ccc(OCC#CCCCCN)cc2)[C@H]1C(=O)NO` [Example 253, (3S)-4-({4-[(7-Amino-2-heptynyl)oxy]phenyl}sulfonyl)-N-hydroxy-2,2-dimethyl-3-thiomorpholine carboxamide]: in the experiment with THP-1 cells (setting [1]), the inhibition at 3 µM came out at 37%.
Still for that read-out and setting: then `CC#CCOc1ccc(S(=O)(=O)N2CCN(C(=O)Nc3ccc(OC)cc3)CC2C(=O)NO)cc1` (centres unmarked) [Example 221, 4-{[4-(2-Butynyloxy)phenyl]sulfonyl}-N-3-hydroxy-N-1-(4-methoxyphenyl)-1,3-piperazinedicarboxamide], with 58%; and `CC#CCOc1ccc(S(=O)(=O)N2CCN(C(=O)CN)CC2C(=O)NO)cc1` (centres unmarked) [Example 230, 4-Aminoacetyl-1-(4-but-2-ynyloxy-benzenesulfonyl)-piperazine-2-carboxylic acid hydroxyamide], with 27%.
`CC#CCOc1ccc(S(=O)(=O)N[C@@H](C(=O)NO)c2ccc(OCCNC(C)=O)cc2)cc1` [Example 201, (2R)-2-{4-[2-(Acetylamino)ethoxy]phenyl}-2-({[4-(2-butynyloxy)phenyl]sulfonyl}amino)-N-hydroxyethanamide]: in the experiment on THP-1 cells (setting [1]), the inhibition at 3 µM turned out to be 77%.
Same read-out and setting: then `CC#CCOc1ccc(S(=O)(=O)N(Cc2cccnc2)C(C(=O)NO)C(C)C)cc1` (centres unmarked) [Example 114, 2-[(4-But-2-ynyloxy-benzenesulfonyl)-pyridin-3-ylmethyl-amino]-N-hydroxy-3-methyl-butyramide], with 75%; and `CC#CCOc1ccc(S(=O)(=O)N(CCCN2CCN(C)CC2)C(C(=O)NO)C(C)C)cc1` (centres unmarked) [Example 120, 2-{{[4-(2-Butynyloxy)phenyl]sulfonyl}[3-(4-methyl-1-piperazinyl)propyl]amino}-N-hydroxy-3-methylbutanamide hydrochloride], with 61%; and `CC#CCOc1ccc(S(=O)(=O)N(C)C(C(=O)NO)c2ccc(OCCCNC(=O)OC(C)(C)C)cc2)cc1` (centres unmarked) [Example 187, tert-Butyl 3-{4-[1-[{[4-(2-butynyloxy)phenyl]sulfonyl}(methyl)amino]-2-(hydroxyamino)-2-oxoethyl]phenoxy}propylcarbamate], with 91%.
As to `CC#CCOc1ccc(S(=O)(=O)N(CCN2CCOCC2)CC(=O)NO)cc1` [Example 124, 2-[{[4-(But-2-ynyloxy)phenyl]sulfonyl}(2-morpholin-4-ylethyl)amino]-N-hydroxyacetamide hydrochloride], the inhibition at 3 µM with THP-1 cells (setting [1]) is 24%.
